Experimental data taken from patent US20250332173A1, “COMPOUNDS AND METHODS FOR MODULATING NUCLEIC ACID SPLICING” (REMIX THERAPEUTICS INC., priority 2021, published 2025).
pIC50: −log10 of the molar value. Read-outs that look alike come from different tables or passages of the source.

Tests used:
HTT mRNA = test: RT-qPCR splicing assay, HTT canonical junction (CJ) and alternative junction (AJ) mRNA; type: cell-based, human; settings: Homo sapiens; for AC50: increase in HTT alternative junction (AJ) mRNA, read-out: HTT AJ AC50
In short: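 Read-out is one-step RT-qPCR on cell lysates detecting the exon-exon junction of each isoform, normalized to a housekeeping gene (PPIA in A673, GAPDH or GUSB in K562).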

[1] = test system: K562 (human chronic myelogenous leukemia) cells; test: Cell Titer Glo 2.0 cell viability assay; type: cell-based; settings: Homo sapiens, K562, 72 h, K562 cells, 72 hours, Cell Titer Glo 2.0; read-out: K562 GI50
Target C = test: HiBiT protein abundance assay, Target C HiBiT K562 cell line; type: cell-based; settings: Homo sapiens; HiBiT lytic detection, modified K562 cells, 24 hours, top dose 10 μM; read-out: Effect on protein abundance, Target C (IC50)
Description: • Promega Nano-Glo HiBiT Lytic Detection System (cat #N3030) • Corning 384-well TC-treated microplates (cat #3570) • Synthego Engineered Cells Knock-In Clones
Cells were maintained in IMDM with 10% FBS. Before the assay, cells were diluted with […] growth media (IMDM+[…] media) and were seeded in a 384-well plate at a density of 10,000 cells/well (for each cell line listed in Table 5). Each compound was prepared as a 10-point 3-fold serial dilution in DMSO with the top dose at a final concentration of 10 μM in the well. Unmodified K562 cells were added at the previously specified density with DMSO to serve as an assay baseline and positive control (PC) and DMSO only with the respective modified cell lines was added to the negative control (NC) columns. Final DMSO concentration was kept at or below 0.25%. Treated cell plates were placed in an incubator at 37° C. with […] for 24 hours. After 24 hours, 25 μL of Complete HiBit Lytic reagent was added to each well at room temperature (e.g. one plate requiring 10 mL Lytic Buffer, 100 μL LgBiT Protein, 200 μL Lytic Substrate), shaken for 5 minutes at 600 RPM, then left to sit for 10 minutes for signal to stabilize before reading on a Spark Cyto plate reader (Tecan) with a 500 ms measurement time.
To determine compound effects on protein abundance of each target in Table 5, the percent response for each respective cell line was calculated at each compound concentration as follows:
For the normalized response at each concentration, a four-parameter logistical regression was fit to the data and the response was interpolated at the […] to determine a concentration for protein abundance at […] the untreated control.

[2] = decrease in HTT canonical junction (CJ) mRNA, RT-qPCR, read-out: HTT CJ IC50
[3] = canonical junction qPCR panel, Table 5, read-out: HTT (decrease in CJ mRNA levels, IC50)

| Structure (SMILES) | pIC50 (HTT mRNA; [2]) | AC50 (HTT mRNA; RT-qPCR) | pIC50 (HTT mRNA; [3]) | GI50 [1] | pIC50 (Target C) |
| --- | --- | --- | --- | --- | --- |
| Cn1cc2cc(-c3ccc4c(=O)n(C5CCNC6(CC6)C5)ncc4n3)c(O)cc2n1 (stereo not shown) [Compound 1306] | 6.00 to 7.00 | 100 to 1000 nM | 6.00 to 7.00 | 100 to 1000 nM | 6.00 to 7.00 |
| CCN1CCC(n2ncc3nc(-c4cc5cn(C)nc5cc4O)ccc3c2=O)CC1 [Compound 1310] | 5.00 to 6.00 | 100 to 1000 nM | 6.00 to 7.00 | 100 to 1000 nM | 5.00 to 6.00 |
| CN1CCC(n2ncc3nc(-c4cc5cn(C)nc5cc4O)ccc3c2=O)CC1 [Compound 1307] | 5.00 to 6.00 | 1000 to 10000 nM | 5.00 to 6.00 | 1000 to 10000 nM | 5.00 to 6.00 |
| Cc1cn2nc(-c3ccc4c(=O)n(C5CCN(CCF)CC5)ncc4n3)cc(C)c2n1 [Compound 1309] | 6.00 to 7.00 | < 100 nM | > 7.00 | 100 to 1000 nM | 6.00 to 7.00 |
| CCN1CCC(n2ncc3nc(-c4cc(C)c5nc(C)cn5n4)ccc3c2=O)CC1 [Compound 1308] | 6.00 to 7.00 | < 100 nM | > 7.00 | 100 to 1000 nM | 6.00 to 7.00 |
| Cn1cc2cc(-c3ccc4c(=O)n(C5CCNCC5)ccc4n3)cc(F)c2n1 [Compound 1231] | 6.00 to 7.00 | 100 to 1000 nM | 6.00 to 7.00 | 100 to 1000 nM |  |
| Cn1cc2cc(-c3ccc4c(=O)n(C5CCNC6(CC6)C5)ccc4n3)c(O)cc2n1 (stereo not shown) [Compound 1242] | > 7.00 | < 100 nM | > 7.00 | < 100 nM |  |
| Cc1cn2cc(-c3ncc4c(=O)n(C5CCNCC5)ccc4n3)cc(C#N)c2n1 [Compound 1301] | 6.00 to 7.00 | 100 to 1000 nM | 6.00 to 7.00 | 100 to 1000 nM |  |
| Cc1c(O)c(-c2ncc3c(=O)n([C@H]4C[C@H](N)C4)ccc3n2)cc2cn(C)nc12 [Compound 1432, 6-((1r,3r)-3-aminocyclobutyl)-2-(6-hydroxy-2,7-dimethyl-2H-indazol-5-yl)pyrido[4,3-d]pyrimidin-5(6H)-one] | 5.00 to 6.00 | 1000 to 10000 nM | 5.00 to 6.00 | 100 to 1000 nM |  |
| Cc1c(O)c(-c2ccc3c(=O)n([C@@H]4CCNC4)ccc3n2)cc2cn(C)nc12 [Compound 1450, 2-(6-hydroxy-2,7-dimethyl-indazol-5-yl)-6-[(3R)-pyrrolidin-3-yl]-1,6-naphthyridin-5-one] | 5.00 to 6.00 | 1000 to 10000 nM | 5.00 to 6.00 | 100 to 1000 nM |  |
| Cc1cn2nc(-c3ccc4c(=O)n(C5CCN(C)CC5)ncc4n3)cc(C)c2n1 [Compound 1311] | 6.00 to 7.00 | 100 to 1000 nM | 6.00 to 7.00 | 100 to 1000 nM | 6.00 to 7.00 |
| Cc1cn2nc(-c3ccc4c(=O)n(C5CCNCC5)ncc4n3)cc(C)c2n1 [Compound 1247] | > 7.00 | < 100 nM | > 7.00 | 100 to 1000 nM | > 7.00 |
